{"source": "patent US12264159B2", "about": "“Functionalized heterocycles as antiviral agents” (Enanta Pharmaceuticals, Inc., priority 2018, dated 2025)", "key": {"[1]": {"assay": "Compound induced cellular toxicity in HepG2 cells, ATPlite 1Step", "assay_type": "cell-based", "settings": "human, three days exposure, 50% reduction of total ATP vs no drug controls", "experimental": "At day 3, post seeding cells are treated with ATPlite 1Step according to the manufacturer's instructions."}, "HBV in 2.2.15 cells": {"tested_on": "HBV in 2.2.15 cells", "assay": "2.2.15 cells: viral product in cell lysates quantified via quantitative real time PCR", "assay_type": "cell-based, hepatitis B virus (HBV)", "settings": "Hepatitis B virus, 120 h, day 5 post treatment, 50% reduction of viral product vs no drug controls, readout (qPCR, HBsAg or HBeAg) not specified for the column", "experimental": "2.2.15 cells are passaged upon attaining confluency in DMEM/F12 media in the presence of 10% FBS, Penn/Strep, and 250 ug/mL G418. Novel compounds are 5 fold serially diluted in DMSO and added to 96 well plates containing 35,000 cells/well at a 1:200 dilution so that the final concentration of DMSO is 0.5%. On day 5, post treatment cell lysates and supernatants are harvested for analysis.\nCells are lysed using Agilent Sidestep Lysis buffer, diluted 1:100 and quantified via quantitative real time PCR. Commercially available ELISA kits are used to quantitate the viral proteins HBsAg (Alpco) or HBeAg (US Biological) by following the manufacturer's recommended protocol after diluting samples to match the linear range of their respective assays. Irrespective of readout, compound concentrations that reduce viral product accumulation in the cell lysates or supernatants by 50% relative to no drug controls (EC50) are reported; EC50 ranges are as follows: A<0.1 μM; B 0.2-1 μM; C>1 μM."}}, "data": [{"compound": "CC(C)(C)[C@@H]1Cn2nnc(-c3ccc(F)cc3)c2-c2cc(=O)c(C(=O)O)cn21", "note": "[Example 208, (R)-6-(tert-butyl)-1-(4-fluorophenyl)-10-oxo-5,6-dihydro-10H-pyrido[1,2-a][1,2,3]triazolo[5,1-c]pyrazine-9-carboxylic acid]", "values": [{"measurement": "CC50 at 3 days", "setting": "[1]", "value": "> 25000", "unit": "nM"}, {"measurement": "EC50", "setting": "HBV in 2.2.15 cells", "value": "< 100", "unit": "nM"}]}, {"compound": "CC(C)(C)[C@@H]1Cn2nc(-c3ccccc3O)cc2-c2cc(=O)c(C(=O)O)cn21", "note": "[Example 46, (R)-6-(tert-butyl)-2-(2-hydroxyphenyl)-10-oxo-5,6-dihydro-10H-pyrazolo[1,5-a]pyrido[2,2-c]pyrazine-12-carboxylic acid]", "values": [{"measurement": "CC50 at 3 days", "setting": "[1]", "value": "> 25000", "unit": "nM"}, {"measurement": "EC50", "setting": "HBV in 2.2.15 cells", "value": "< 100", "unit": "nM"}]}, {"compound": "Cc1cccc(C)c1-c1cc2n(n1)C[C@@H](C(C)(C)C)n1cc(C(=O)O)c(=O)cc1-2", "note": "[Example 62, (R)-6-(tert-butyl)-2-(2,6-dimethylphenyl)-10-oxo-5,6-dihydro-10H-pyrazolo[1,5-a]pyrido[2,2-c]pyrazine-12-carboxylic acid]", "values": [{"measurement": "CC50 at 3 days", "setting": "[1]", "value": "> 25000", "unit": "nM"}, {"measurement": "EC50", "setting": "HBV in 2.2.15 cells", "value": "200 to 1000", "unit": "nM"}]}, {"compound": "Cc1cc(-c2cc3n(n2)C[C@@H](C(C)(C)C)n2cc(C(=O)O)c(=O)cc2-3)c(F)cc1F", "note": "[Example 39, (R)-6-(tert-butyl)-2-(2,4-difluoro-5-methylphenyl)-10-oxo-5,6-dihydro-10H-pyrazolo[1,5-a]pyrido[2,2-c]pyrazine-12-carboxylic acid]", "values": [{"measurement": "CC50 at 3 days", "setting": "[1]", "value": "> 25000", "unit": "nM"}, {"measurement": "EC50", "setting": "HBV in 2.2.15 cells", "value": "< 100", "unit": "nM"}]}, {"compound": "CC(C)[C@@H]1Cn2nc(-c3cccc(F)c3)c(-c3cccc(F)c3)c2-c2c(F)c(=O)c(C(=O)O)cn21", "note": "[Example 188, (R)-11-fluoro-1,2-bis(3-fluorophenyl)-6-isopropyl-10-oxo-5,6-dihydro-10H-pyrazolo[1,5-a]pyrido[2,1-c]pyrazine-9-carboxylic acid]", "values": [{"measurement": "CC50 at 3 days", "setting": "[1]", "value": "> 25000", "unit": "nM"}, {"measurement": "EC50", "setting": "HBV in 2.2.15 cells", "value": "< 100", "unit": "nM"}]}, {"compound": "COc1cc(-c2cc3n(n2)C[C@@H](C(C)(C)C)n2cc(C(=O)O)c(=O)cc2-3)c(OC)nn1", "note": "[Example 16, (R)-6-(tert-butyl)-2-(3,6-dimethoxypyridazin-4-yl)-10-oxo-5,6-dihydro-10H-pyrazolo[1,5-a]pyrido[2,2-c]pyrazine-12-carboxylic acid]", "values": [{"measurement": "CC50 at 3 days", "setting": "[1]", "value": "> 25000", "unit": "nM"}, {"measurement": "EC50", "setting": "HBV in 2.2.15 cells", "value": "< 100", "unit": "nM"}]}, {"compound": "CC(C)(C)[C@@H]1Cn2ncc(-c3cccnc3)c2-c2cc(=O)c(C(=O)O)cn21", "note": "[Example 118, (R)-6-(tert-butyl)-10-oxo-1-(pyridin-3-yl)-5,6-dihydro-10H-pyrazolo[1,5-a]pyrido[2,1-c]pyrazine-9-carboxylic acid]", "values": [{"measurement": "EC50", "setting": "HBV in 2.2.15 cells", "value": "< 100", "unit": "nM"}]}, {"compound": "CC(C)(C)[C@@H]1Cn2ncc(-c3cncs3)c2-c2cc(=O)c(C(=O)O)cn21", "note": "[Example 106, (R)-6-(tert-butyl)-10-oxo-1-(thiazol-5-yl)-5,6-dihydro-10H-pyrazolo[1,5-a]pyrido[2,1-c]pyrazine-9-carboxylic acid]", "values": [{"measurement": "EC50", "setting": "HBV in 2.2.15 cells", "value": "< 100", "unit": "nM"}]}, {"compound": "CC(C)(C)[C@@H]1Cn2ncc(Cl)c2-c2cc(=O)c(C(=O)O)cn21", "note": "[Example 99, (R)-6-(tert-butyl)-1-chloro-10-oxo-5,6-dihydro-10H-pyrazolo[1,5-a]pyrido[2,1-c]pyrazine-9-carboxylic acid]", "values": [{"measurement": "EC50", "setting": "HBV in 2.2.15 cells", "value": "200 to 1000", "unit": "nM"}]}, {"compound": "CC(C)[C@@H]1Cn2nc(C3CC3)c(-c3cnco3)c2-c2cc(=O)c(C(=O)O)cn21", "note": "[Example 139, (R)-2-cyclopropyl-6-isopropyl-1-(oxazol-5-yl)-10-oxo-5,6-dihydro-10H-pyrazolo[1,5-a]pyrido[2,1-c]pyrazine-9-carboxylic acid]", "values": [{"measurement": "EC50", "setting": "HBV in 2.2.15 cells", "value": "200 to 1000", "unit": "nM"}]}, {"compound": "CC(C)[C@@H]1Cn2nc(-c3ccnnc3)c(-c3ccnnc3)c2-c2cc(=O)c(C(=O)O)cn21", "note": "[Example 173, (R)-6-isopropyl-10-oxo-1,2-di(pyridazin-4-yl)-5,6-dihydro-10H-pyrazolo[1,5-a]pyrido[2,1-c]pyrazine-9-carboxylic acid]", "values": [{"measurement": "EC50", "setting": "HBV in 2.2.15 cells", "value": "200 to 1000", "unit": "nM"}]}, {"compound": "CC(C)(C)[C@@H]1Cn2nc(-c3cc(F)ccc3OCC(F)(F)F)c(Cl)c2-c2cc(=O)c(C(=O)O)cn21", "note": "[Example 89, (R)-6-(tert-butyl)-1-chloro-2-(5-fluoro-2-(2,2,2-trifluoroethoxy)phenyl)-10-oxo-5,6-dihydro-10H-pyrazolo[1,5-a]pyrido[2,1-c]pyrazine-9-carboxylic acid]", "values": [{"measurement": "EC50", "setting": "HBV in 2.2.15 cells", "value": "< 100", "unit": "nM"}]}]}
